molecular target: hNAAA (Homo sapiens (Human), UniProt Q02083); test: NAAA fluorescence-based inhibition assay with PAMCA substrate; type: biochemical; conditions: purified activated hNAAA, PAMCA 5 μM, pH 4.5, 37° C.
Source text: In order to have an assay method more conducive to high-throughput screening than those published for measuring the NAE hydrolyzing activity of NAAA [Proc. Natl. Acad. Sci. USA. 2009; 106(49):20966-71], the fluorogenic PEA analog N-(4-methyl coumarin)palmitamide (PAMCA), which is hydrolyzed to fluorescent 7-amino-4-methyl coumarin (AMC) and palmitic acid, was developed. [J. Proteome Res. 2012; 11(2):972-981], [PloS One. 2012; 7: e43877]. For three point concentration inhibition assays with hNAAA the following procedure was used. Purified activated NAAA (final concentration of 0.25 μg/mL) was incubated in assay buffer (100 mM citrate-phosphate buffer, pH 4.5, 3 mM DTT, 0.1% Triton X-100, 0.05% BSA, and 150 mM NaCl) made up to a total volume of 180 μL, followed by addition of the compound dissolved in 10 μL DMSO (along with DMSO neat for the control sample) with the final concentrations for each compound of 100, 10, and 1 μM, in triplicate on a 96 well plate. These samples were allowed to incubate for 15 min at room temperature and then 10 μL of a PAMCA stock solution in DMSO (final PAMCA concentration [5 μM]) was added. After 5 minutes of agitation on a shaking plate, the reaction was allowed to proceed at 37° C. for 120 minutes, with fluorescence readings taken every 10 minutes at a wavelength of 460 nm (using an excitation wavelength of 360 nm) on a Synergy HT Plate Reader using Gen5 software from Bio-Tek. The enzyme activity was calculated by converting the relative fluorescence units to AMC formed, using a standard curve of AMC.
For compounds that inhibit hNAAA in range IC50<1 μM, full inhibition curves using eight different concentrations of inhibitor (8 point assay) were generated. The assay procedure used was the same as the three point assay. For ostensibly covalent compounds (as observed by a significant decrease in the slope of a plot of fluorescence vs. time in three point screen), samples were allowed to incubate for 2 hours at 37° C., instead of 15 minutes, before addition of 10 μL of a PAMCA stock solution in DMSO for a final PAMCA concentration of 5 μM. After 5 minutes of agitation on a shaking plate, the reaction was allowed to proceed at 37° C. for 120 minutes. Inhibition constants were calculated using pro Fit software (Quantum Soft, Uetikon am See, Switzerland) and a Levenberg-Marquardt algorithm.

Sequence of hNAAA (Q02083 29-125): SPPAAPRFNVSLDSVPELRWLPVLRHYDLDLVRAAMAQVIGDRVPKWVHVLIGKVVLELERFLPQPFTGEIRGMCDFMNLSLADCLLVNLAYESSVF
Sequence of hNAAA (Q02083 126-359): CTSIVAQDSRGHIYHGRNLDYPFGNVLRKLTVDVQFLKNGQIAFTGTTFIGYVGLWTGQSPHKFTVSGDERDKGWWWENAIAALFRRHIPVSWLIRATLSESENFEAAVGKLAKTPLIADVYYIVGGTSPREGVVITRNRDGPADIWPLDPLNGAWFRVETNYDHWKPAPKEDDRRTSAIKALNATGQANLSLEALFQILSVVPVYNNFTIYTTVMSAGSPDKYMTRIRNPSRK

SMILES | IC50
COc1ccc(/C=C/C(=O)N[C@H]2C[C@@H](N=C=S)C2)cc1 [Example 1, (E)-N-((1s, 3s)-3-Isothiocyanatocyclobutyl)-3-(4-methoxyphenyl)acrylamide] | > 1000 nM
COc1cccc(-c2ccc(C(=O)N[C@H]3C[C@@H](N=C=S)C3)cc2)c1 [Example 2, N-((1r, 3r)-3-Isothiocyanatocyclobutyl)-3′-methoxy-[1,1′-biphenyl]-4-carboxamide] | 110 to 1000 nM
COc1cccc(-c2ccc(C(=O)O[C@H]3C[C@@H](N=C=S)C3)cc2)c1 [Example 3, (1r, 3r)-3-Isothiocyanatocyclobutyl 3′-methoxy-[1,1′-biphenyl]-4-carboxylate] | 10 to 100 nM
COc1ccc(Oc2ccc(C(=O)N[C@H]3C[C@H](N=C=S)C3)cc2)cc1 [Example 4, N-((1r, 3r)-3-Isothiocyanatocyclobutyl)-4-(4-methoxyphenoxy)benzamide] | > 1000 nM
O=C(N[C@H]1C[C@@H](N=C=S)C1)c1ccc(N2CCOCC2)cc1 [Example 5, N-((1r, 3r)-3-Isothiocyanatocyclobutyl)-4-morpholinobenzamide] | > 1000 nM
O=C(N[C@H]1C[C@@H](N=C=S)C1)c1ccc(Oc2cccnc2)cc1 [Example 6, N-((1r, 3r)-3-Isothiocyanatocyclobutyl)-4-(pyridin-3-yloxy)benzamide] | 110 to 1000 nM
COc1ccc(-c2ccc(C(=O)N[C@H]3C[C@@H](N=C=S)C3)c(F)c2)cc1 [Example 7, 3-Fluoro-N-((1r, 3r)-3-isothiocyanatocyclobutyl)-4′-methoxy-[1,1′-biphenyl]-4-carboxamide] | 10 to 100 nM
COc1ccc(-c2ccc(C(=O)O[C@H]3C[C@@H](N=C=S)C3)c(F)c2)cc1 [Example 8, (1r, 3r)-3-Isothiocyanatocyclobutyl 3-fluoro-4′-methoxy-[1,1′-biphenyl]-4-carboxylate] | 10 to 100 nM
COc1ccc(-c2ccc(C(=O)N[C@]34C[C@](N=C=S)(C3)C4)c(F)c2)cc1 [Example 9, 3-Fluoro-N-(3-isothiocyanatobicyclo[1.1.1]pentan-1-yl)-4′-methoxy-[1,1′-biphenyl]-4-carboxamide] | > 1000 nM
COc1ccc2cc(C(=O)N[C@H]3C[C@@H](N=C=S)C3)ccc2c1 [Example 10, N-((1s, 3 s)-3-Isothiocyanatocyclobutyl)-6-methoxy-2-naphthamide] | > 1000 nM
CC[C@H]1CC[C@H](c2ccc(C(=O)N[C@H]3C[C@@H](N=C=S)C3)cc2)CC1 [Example 11, 4-((1s, 4s)-4-Ethylcyclohexyl)-N-((1r, 3R)-3-isothiocyanatocyclobutyl) benzamide] | > 1000 nM
COc1ccc(CCC(=O)N[C@H]2C[C@@H](N=C=S)C2)cc1 [Example 12, N-((1r, 3r)-3-Isothiocyanatocyclobutyl)-3-(4-methoxyphenyl)propanamide] | 110 to 1000 nM
COc1ccc(C#CC(=O)N[C@H]2C[C@@H](N=C=S)C2)cc1 [Example 13, N-((1r, 3r)-3-Isothiocyanatocyclobutyl)-3-(4-methoxyphenyl)propiolamide] | 110 to 1000 nM
COc1ccc(C2CC2C(=O)N[C@H]2C[C@@H](N=C=S)C2)cc1 (some centres unmarked) [Example 14, N-((1r, 3r)-3-Isothiocyanatocyclobutyl)-2-(4-methoxyphenyl)cyclopropane-1-carboxamide] | 10 to 100 nM
COc1ccc(CCCC(=O)N[C@H]2C[C@@H](N=C=S)C2)cc1 [Example 15, N-((1r, 3r)-3-Isothiocyanatocyclobutyl)-4-(4-methoxyphenyl)butanamide] | 10 to 100 nM
COc1ccc(-c2cc(C(=O)N[C@H]3C[C@@H](N=C=S)C3)on2)cc1 [Example 16, N-((1r, 3r)-3-Isothiocyanatocyclobutyl)-3-(4-methoxyphenyl)isoxazole-5-carboxamide] | 10 to 100 nM
COc1ccc(N2CCC(C(=O)N[C@H]3C[C@@H](N=C=S)C3)CC2)cc1 [Example 17, N-((1r, 3 r)-3-Isothiocyanatocyclobutyl)-1-(4-methoxyphenyl)piperidine-4-carboxamide] | 110 to 1000 nM
COc1ccc(-c2ccc(C(=O)N[C@H]3C[C@@H](N=C=S)C3)nc2)cc1 [Example 18, N-((1s, 3 s)-3-Isothiocyanatocyclobutyl)-5-(4-methoxyphenyl)picolinamide] | 10 to 100 nM

SMILES | IC50
COc1ccc(-c2ccc(C(=O)N[C@H]3C[C@@H](N=C=S)C3)nc2)cc1F [Example 19, 5-(3-Fluoro-4-methoxyphenyl)-N-((1r, 3r)-3-isothiocyanatocyclobutyl) picolinamide] | 10 to 100 nM
COc1cccc(-c2ccc(C(=O)N[C@H]3C[C@@H](N=C=S)C3)nc2)c1 [Example 20, N-((1r, 3r)-3-Isothiocyanatocyclobutyl)-5-(3-methoxyphenyl)picolinamide] | 110 to 1000 nM
COc1ccc(-c2cnc(C(=O)N[C@H]3C[C@@H](N=C=S)C3)cn2)cc1 [Example 22, N-((1r, 3r)-3-Isothiocyanatocyclobutyl)-5-(4-methoxyphenyl)pyrazine-2-carboxamide] | 110 to 1000 nM
N#Cc1ccc(-c2ccc(C(=O)N[C@H]3C[C@@H](N=C=S)C3)nc2)cc1 [Example 23, 5-(4-cyanophenyl)-N-((1r, 3r)-3-Isothiocyanatocyclobutyl)picolinamide] | 110 to 1000 nM
COc1ccc(Nc2ccc(C(=O)N[C@H]3C[C@@H](N=C=S)C3)nc2)cc1 [Example 24, N-((1r, 3r)-3-Isothiocyanatocyclobutyl)-5-((4-methoxyphenyl)amino) picolinamide] | > 1000 nM
COc1ccc(-c2ccc(S(=O)(=O)N[C@H]3C[C@@H](N=C=S)C3)cc2)cc1 [Example 25, N-((1r, 3r)-3-Isothiocyanatocyclobutyl)-4′-methoxy-[1,1′-biphenyl]-4-sulfonamide] | 10 to 100 nM
COc1ccc(-c2ccc(S(=O)(=O)N[C@H]3C[C@@H](N=C=S)C3)nc2)cc1 [Example 26, N-((1s, 3s)-3-Isothiocyanatocyclobutyl)-5-(4-methoxyphenyl)pyridine-2-sulfonamide] | 10 to 100 nM
COc1ccc(-c2ccc(S(=O)(=O)O[C@H]3C[C@@H](N=C=S)C3)cc2)cc1 [Example 27, (1s, 3 s)-3-Isothiocyanatocyclobutyl 4′-methoxy-[1,1′-biphenyl]-4-sulfonate] | 10 to 100 nM
COc1ccc(-c2ccc(C(=O)O[C@H]3C[C@@H](N=C=S)C3)c(F)c2)cc1F [Example 28, (1s,3s)-3-isothiocyanatocyclobutyl 3,3′-difluoro-4′-methoxy-[1,1′-biphenyl]-4-carboxylate] | 10 to 100 nM
COc1ccc(-c2ccc(C(=O)N[C@H]3C[C@@H](N=C=S)C3)c(F)c2)cc1F [Example 29, 3,3′-Difluoro-N-((1s,3s)-3-isothiocyanatocyclobutyl)-4′-methoxy-[1,1′-biphenyl]-4-carboxamide] | 10 to 100 nM
COc1ccc(-c2ccc(S(=O)(=O)N[C@H]3C[C@@H](N=C=S)C3)cc2)cc1F [Example 30, 3′-Fluoro-N-((1s,3s)-3-isothiocyanatocyclobutyl)-4′-methoxy-[1,1′-biphenyl]-4-sulfonamide] | 10 to 100 nM
COc1ccc(-c2ccc(S(=O)(=O)O[C@H]3C[C@@H](N=C=S)C3)cc2)cc1F [Example 31, (1s,3s)-3-Isothiocyanatocyclobutyl 3′-fluoro-4′-methoxy-[1,1′-biphenyl]-4-sulfonate] | 10 to 100 nM
O=C(CCCCCc1ccccc1)N[C@H]1C[C@@H](N=C=S)C1 [Example 32, N-(1s,3s)-(3-Isothiocyanatocyclobutyl)-6-phenylhexanamide] | 10 to 100 nM
COc1ccc(-c2ccc(OC(=O)N[C@H]3C[C@@H](N=C=S)C3)cc2)cc1 [Example 33, 4′-Methoxy-[1,1′-biphenyl]-4-yl ((1s,3s)-3-isothiocyanatocyclobutyl)carbamate] | 10 to 100 nM
COc1ccc(-c2ccc(C(=O)N[C@H]3C[C@@H](N=C=S)C3)nc2)nc1 [Example 34, N-(cis-(3-Isothiocyanatocyclobutyl))-5-methoxy-[2,3′-bipyridine]-6′-carboxamide] | 10 to 100 nM
COc1ccc(-c2ncc(C(=O)N[C@H]3C[C@@H](N=C=S)C3)o2)cc1 [Example 35, N-((cis)-3-isothiocyanatocyclobutyl)-2-(4-methoxyphenyl)oxazole-5-carboxamide] | 110 to 1000 nM
COc1ccc(N2CC(C(=O)N[C@H]3C[C@@H](N=C=S)C3)C2)cc1 [Example 36, N-((1s,3s)-3-Isothiocyanatocyclobutyl)-1-(4-methoxyphenyl)azetidine-3-carboxamide] | 110 to 1000 nM
